Assay results from patent US20240350481A1, “USE OF N-MYRISTOYL TRANSFERASE (NMT) INHIBITORS IN THE TREATMENT OF CANCER, AUTOIMMUNE DISORDERS, AND INFLAMMATORY DISORDERS” (PACYLEX PHARMACEUTICALS INC., priority 2020, published 2024).
Like-named read-outs stand apart in the source and are kept apart here.

What was measured:
[1] = Mouse IV; cited from earlier work
[2] = test system: peripheral blood mononuclear cells (PBMCs); assay: PBMC viability assay; assay type: cell-based, human; details: 96 hr
Description: 2 healthy human research volunteers were recruited for PBMC and lymphocytes isolation from a 20 ml blood collection (patient #1: no diagnosis, no treatment; patient #2: no diagnosis, no treatment). Study protocol was approved by the Health Research Ethics Board of Alberta Cancer Committee (Study title: Evaluations of Fatty AcylTransferases (FATs) in fresh blood and blood forming cells; HREBA.CC-17-0624).
Mononuclear cells were isolated from peripheral blood by density gradient centrifugation using Ficoll-Paque (GE Healthcare, PA, USA). Lymphocytes were isolated from whole blood samples using EasySep™ lymphocyte isolation kit (Stemcell Technologies, Vancouver, BC, Canada) as per manufacturer's instructions. PBMC and lymphocytes were cultured in RPMI medium with 10% FBS, 100 U/ml penicillin, 0.1 mg/ml streptomycin. Cells were plated at a concentration of 2×10^6 cells/ml.

DOHH2 tumors = assay: DOHH2 xenograft, tumor growth; assay type: in vivo, mouse
Description: DOHH2 xenograft study at Charles River's facility: […] On Day 1 of the study, animals were given a rehydration solution ad libitum in an effort to reduce dehydration during the dosing phase of the study. […] The dose volume was 10 mL/kg.

BL2 and IM9 cells = assay: Calcein viability, PCLX-001 vs dasatinib and ibrutinib; assay type: cell-based
Description: Calcein assay consists of measuring the cell viability ratio (live cells/total cells and expressed as % viability). Cells were stained with the Nuclear-ID Blue/Red cell viability reagent (GFP-certified, Enzo Life Sciences) to identify total cells, and dead cells while live cells were stained with Calcein AM (Life Technologies) according to manufacturer's instructions. Cell count was performed using a Cytation 5 Cell Imaging Multi-Mode Reader (Biotek Instruments, Inc.) and analysed by Biotek Gen5 Data Analysis software (version 2.09).

[3] = dogs; cited from earlier work
[4] = T cell viability by flow cytometry; assay type: cell-based; details: human, purified T cells from healthy donors; for viability at 4 days, 20 nM: Drug 20 nM; for viability at 4 days, 100 nM: Drug 100 nM; for viability at 4 days, 500 nM: Drug 500 nM
Description: Human peripheral blood mononuclear cells (PBMC) and purified T cells from healthy donors were purchased from […] Technologies (CA). Cells (7.5×10^6/ml) were cultured in the RPMI supplementing with 10% heat-inactivated fetal bovine serum (vWR), 1% penicillin/streptomycin (SigmaMillipore), 1% sodium pyruvate, and 1% non-essential amino acids (Gibco) in 24 well plates in the presence of 100 IU/ml interleukin 2 ([…] Technologies or HIV reagent program (managed by ATCC).
Then, cells were induced with T cell activator ([…]) in the presence of the drugs for 2 more days. After 4 days, the viability of treated T cells was analyzed using Flow cytometry. The supernatants for both PBMC and T cells were collected for further analysis.

[5] = test system: hematological cancer cell lines; assay: Viability of hematological cancer cell lines in vitro (assay not given); assay type: cell-based; details: most hematological cancer cell lines in vitro
BL2 cells = assay: Click chemistry, total protein myristoylation; assay type: cell-based; details: 1 hr treatment
Description: Protein from the resulting cell lysates were reacted with 100 μM azido-biotin using click chemistry and processed as described in Yap et al.^47 and Perinpanayagam et al.^33

BL2 xenografts = assay: BL2 xenograft, tumor growth; assay type: in vivo, mouse
Source text: BL2 xenograft study at Jackson Laboratory: One hundred five (105) 6 week old female NOD.CB17-Prkdc scid/J (NOD scid, Stock #001303) mice were transferred to the in vivo research laboratory in Sacramento, CA. The mice were ear notched for identification and housed in individually and positively ventilated polysulfone cages with HEPA filtered air at a density of 5 mice per cage. Initially cages were changed every two weeks. The animal room was lighted entirely with artificial fluorescent lighting, with a controlled 12 hour light/dark cycle (6 am to 6 pm light). The normal temperature and relative humidity ranges in the animal rooms were 20-26° C. and 30-70%, respectively. The animal rooms were set to have up to 15 air exchanges per hour. Filtered tap water, acidified to a pH of 2.5 to 3.0, and standard lab chow were provided ad libitum.
The dose volume was 10 mL/kg.
TGI (%)=(Vcontrol−Vtreated)/(Vcontrol−Vnitial)*100.

[6] = rats; cited from earlier work

Question: What does the source list for `Cc1c(N[S+](=O)([O-])c2c(Cl)cc(-c3ccnc(N4CCNCC4)c3)cc2Cl)c(CC(C)C)nn1C` [PCLX-001]?
Answer: Clearance [1]: 3 mL/min/kg; decrease in PBMC survival ([2]; 0.1 μM): ~50%; concentration endured by the surviving PBMCs [2]: ≤ 10 µM; mean tumor growth inhibition (TGI) (DOHH2 tumors; 50 mg/kg daily with 5-day interruption, by day 16): 95%; reduction of tumor size (DOHH2 tumors; 50 mg/kg daily, by day 7): up to 70%; average tumor size (DOHH2 tumors; 50 mg/kg daily, day 7): 44.0±8.1 mm^3; cell death (BL2 and IM9 cells; BL2 cells, 0.1 and 1.0 μM, 48 hours): less than 25%; viability of treated cells (BL2 and IM9 cells; at concentrations that are becoming cytotoxic): at least 75%; toxicity at high dose levels [3]: hematopoietic toxicity; viability at 4 days, 20 nM ([4]; T cells viability (#1)): 9%; viability at 4 days, 100 nM ([4]; T cells viability (#1)): 8%; viability at 4 days, 500 nM ([4]; T cells viability (#1)): 10%; viability at 4 days, 20 nM ([4]; T cells viability (#2)): 66%; viability at 4 days, 100 nM ([4]; T cells viability (#2)): 60%; viability at 4 days, 500 nM ([4]; T cells viability (#2)): 62%; viability at 4 days, 20 nM ([4]; T cells viability (#3)): 76%; viability at 4 days, 100 nM ([4]; T cells viability (#3)): 71%; viability at 4 days, 500 nM ([4]; T cells viability (#3)): 68%; IC50 [5]: 50 to 100 nM; concentration required to decrease myristoylation (BL2 cells): ~0.1 µM; tumor regression (BL2 xenografts; 20 mg/kg daily, by day 9): 42.5%; tumor regression (BL2 xenografts; 56 mg/kg daily, 13 days): 100%; tumor regression (BL2 xenografts; 60 mg/kg daily, 13 days): 100%; toxicity at high dose levels [6]: hematopoietic toxicity
